# According to publication PMC9667253 (eBioMedicine, 2022):
# Assays:
# [1] = molecular target: E2F2 (Homo sapiens, UniProt Q14209); test: competition in biotin-bufalin pull-down from HepG2 lysate; type: cell-based
# [2] = molecular target: ZFP91 (zinc finger protein 91) (Homo sapiens, UniProt Q96JP5); test: MST; type: binding
# ZFP91 (zinc finger protein 91), sequence (Q96JP5 2-570): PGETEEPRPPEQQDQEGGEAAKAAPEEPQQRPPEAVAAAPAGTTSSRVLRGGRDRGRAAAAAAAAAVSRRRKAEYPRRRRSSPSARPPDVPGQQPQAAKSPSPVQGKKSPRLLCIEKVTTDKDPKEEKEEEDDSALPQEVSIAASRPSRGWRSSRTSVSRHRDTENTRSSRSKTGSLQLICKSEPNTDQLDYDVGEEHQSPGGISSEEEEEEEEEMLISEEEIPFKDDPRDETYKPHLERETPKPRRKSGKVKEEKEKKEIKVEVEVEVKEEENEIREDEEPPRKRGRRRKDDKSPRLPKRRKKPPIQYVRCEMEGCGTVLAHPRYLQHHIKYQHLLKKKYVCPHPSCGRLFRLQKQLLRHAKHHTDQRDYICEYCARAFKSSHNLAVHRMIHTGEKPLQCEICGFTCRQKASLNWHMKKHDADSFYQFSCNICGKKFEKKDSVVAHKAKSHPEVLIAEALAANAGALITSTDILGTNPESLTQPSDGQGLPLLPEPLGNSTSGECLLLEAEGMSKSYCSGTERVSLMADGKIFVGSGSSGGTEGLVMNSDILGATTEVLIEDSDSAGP
# E2F2, sequence (Q14209 whole entry): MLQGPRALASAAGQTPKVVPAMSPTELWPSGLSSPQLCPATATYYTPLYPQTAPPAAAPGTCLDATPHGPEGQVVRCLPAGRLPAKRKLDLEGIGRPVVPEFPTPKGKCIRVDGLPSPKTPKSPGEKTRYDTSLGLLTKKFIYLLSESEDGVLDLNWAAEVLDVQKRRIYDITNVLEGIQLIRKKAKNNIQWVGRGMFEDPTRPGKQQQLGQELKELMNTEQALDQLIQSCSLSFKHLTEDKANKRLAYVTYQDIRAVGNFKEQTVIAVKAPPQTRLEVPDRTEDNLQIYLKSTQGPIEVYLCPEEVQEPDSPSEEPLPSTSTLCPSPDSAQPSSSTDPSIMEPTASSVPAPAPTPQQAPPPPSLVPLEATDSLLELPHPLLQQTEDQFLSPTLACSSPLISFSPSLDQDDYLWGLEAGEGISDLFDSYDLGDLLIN
SMILES,competition in biotin-bufalin pull-down from HepG2 lysate [1],Kd [2] [nM]
"C[C@]12CC[C@@H](O)C[C@@H]1CC[C@@H]1[C@@H]2CC[C@]2(C)C(=O)CC[C@@H]12 [DHA, androsterone]",DHA significantly limited the binding of biotin-bufalin to E2F2,
"O=c1cccco1 [α-Pyr, α-Pyrone]",,900 ± 322
